The values that follow come from ChEMBL document CHEMBL3132846 (Medchemcomm, 2014).

Series [1] is described as follows: Cytotoxicity against human BGC823 cells after 48 hrs by MTT assay. It counts as functional, cell-based. To be noted: BGC-823, 48 h. On the technique in general: Formazan colour is commonly taken as a measure of viable cells.
A short description of series [2]: Cytotoxicity against human JeKo1 cells after 48 hrs by MTT assay. It counts as functional, cell-based. Particulars: JeKo-1, 48 h.
Series [3] is described as follows: Cytotoxicity against human Bel7402 cells after 48 hrs by MTT assay. Type of series: functional, cell-based. Particulars: Bel-7402, 48 h.
The test system of a further series is SiHa. Kind of series: Cytotoxicity against human SiHa cells after 48 hrs by MTT assay. It counts as functional, cell-based.
The subject of another series is MCF7. Kind of series: Cytotoxicity against human MCF7 cells after 48 hrs by MTT assay. It counts as functional, cell-based. To be noted: MCF7, 48 h.
The next series has as its system HeLa. Kind of series: Cytotoxicity against human HeLa cells after 48 hrs by MTT assay. Type of series: functional, cell-based.
The subject of another series is BeWo. Kind of series: Cytotoxicity against human Bewo cells after 48 hrs by MTT assay. It counts as functional, cell-based.
The subject of another series is A549. Kind of series: Cytotoxicity against human A549 cells after 48 hrs by MTT assay. Type of series: functional, cell-based. To be noted: A549, 48 h.
The test system of the next series is Ishikawa. Kind of series: Cytotoxicity against human Ishikawa cells after 48 hrs by MTT assay. It counts as functional, cell-based.
Series [4] in a line: Cytotoxicity against human SKBR3 cells after 48 hrs by MTT assay. It counts as functional, cell-based. Particulars: SK-BR-3, 48 h.
Series [5] has as its system HUVEC. Kind of series: Cytotoxicity against HUVEC assessed as mitochondrial metabolism after 48 hrs by MTT assay. Type of series: cell-based, Homo sapiens. Particulars: for IC50: Homo sapiens, HUVEC; for Activity: human, huvec.
The subject of another series is HL-60. Kind of series: Cytotoxicity against human HL60 cells after 48 hrs by MTT assay. Type of series: functional, cell-based. Particulars: HL-60, 48 h.
The nature of series [6]: Cytotoxicity against human NCI-460 cells after 48 hrs by MTT assay. It counts as functional, cell-based. To be noted: NCI-460, 48 h.
In another series the test system is Mus musculus. Kind of series: Toxicity in ICR mouse allografted with mouse S180 cells assessed as body weight loss at 200 mg/kg, ig qd administered for 6 days relative to vehicle-treated control. Particulars: in vivo, po, 144 h. Details: dose 200 mg/kg, route intragastric. Type of series: organism-based, CCRF S-180.
The subject of series [7] is CCRF S-180. Kind of series: Antitumor activity against mouse S180 cells allografted in ICR mouse assessed as tumor growth inhibition at 200 mg/kg, ig qd administered for 6 days relative to vehicle-treated control. It counts as functional. To be noted: CCRF S-180, po, 144 h, route intragastric, read-out: TGI.
The subject of series [8] is HUVEC. Kind of series: Antiangiogenic activity against HUVEC assessed as inhibition of tube formation at 12.5 ug/ml after 24 hrs relative to control. To be noted: Homo sapiens. It counts as functional, cell-based.
In series [9] the test system is HUVEC. Kind of series: Antiangiogenic activity against HUVEC assessed as inhibition of cell migration at 2.5 ug/ml after 24 hrs by wound healing assay relative to control. It counts as functional. To be noted: Homo sapiens.
Series [10] relates to HUVEC. Kind of series: Antiangiogenic activity against HUVEC assessed as inhibition of cell migration at 10 ug/ml after 24 hrs by wound healing assay relative to control. Type of series: functional. To be noted: Homo sapiens.
In series [11] the test system is CCRF S-180. Kind of series: Antitumor activity against mouse S180 cells allografted in ICR mouse assessed as tumor growth inhibition at 30 mg/kg, ig qd administered for 6 days relative to vehicle-treated control. Particulars: CCRF S-180, po, 144 h, route intragastric, read-out: TGI. It counts as functional.

As a reminder, the IC50 is the point on the concentration scale where inhibition reaches its midpoint. As usually defined, the inhibition is the relative decrease from the control value, in per cent.

Activity calls are given as the source filed them. The rule behind the calls is not given here.

In the case of `Cc1ccc2c(=O)c3cccc(CC(=O)N/N=C/c4cc(Cl)ccc4O)c3oc2c1C`, the IC50 was over 100 µM in [1]; over 10 µg/mL in [2]; over 100 µM in series [3]; over 100 µM with SiHa; over 100 µM with MCF7; 36.2 µM in the series on HeLa. In addition, the IC50 in the series on BeWo was 76.4 µM; in the series with A549, 11.5 µM; with Ishikawa, 68.4 µM; in [4] it was over 10 µg/mL; in the series with HUVEC [5] it was over 20 µM; in the series with HL-60, 20.8 µM. In [6], this compound registered an IC50 of over 100 µM.

Turning to `CCCNC(=O)Cc1cccc2c(=O)c3ccc(C)c(C)c3oc12`, in the series on Mus musculus, the Activity was determined as 10.32%. Besides, the IC50 in series [1] was over 100 µM; in series [3], over 100 µM; in the series on SiHa, 92 µM; in the series with MCF7, over 100 µM; with HeLa, over 100 µM; in the series with BeWo it was over 100 µM. The IC50 in the series with A549 is 28.9 µM; in the series on Ishikawa, over 100 µM; in the series with HL-60, over 100 µM; in series [6] it was over 100 µM. Besides, in the series on CCRF S-180 [7], the inhibition in vivo at 200 mg/kg was determined as 25.6%.

For `Cc1ccc2c(=O)c3cccc(CC(=O)Nc4ccc(Cl)c(Cl)c4)c3oc2c1C`, the Activity in the series with Mus musculus is 12.87%; in the series with HUVEC [5] it was “Dose-dependent effect”. In addition, the IC50 is 96.1 µM with SiHa; over 100 µM with MCF7; 18.7 µM in the series with HeLa; over 100 µM in the series on BeWo; 92 µM with A549; over 100 µM in the series on Ishikawa. For the same compound, the IC50 with HUVEC [5] was 6.4 µM; in the series with HL-60, 42.4 µM. For the same compound, the inhibition in vivo at 200 mg/kg in the series with CCRF S-180 [7] is 29.6%. The outcome in the series with HUVEC [8] was Active. In addition, in the series on HUVEC [9], the inhibition at 2.5 µg/mL was 67.6%. Further, the inhibition at 10 µg/mL in the series on HUVEC [10] turned out to be 89.7%.

For the compound `Cc1ccc2c(=O)c3cccc(CC(=O)Nc4ccc(Cl)cc4)c3oc2c1C`, the Activity in the series with Mus musculus is recorded as 12.37%; in the series with HUVEC [5], “Dose-dependent effect”. The IC50 with SiHa is 46.6 µM; in the series on MCF7, over 100 µM; with HeLa, over 100 µM; with BeWo it was 32 µM; in the series with A549, 9.39 µM; in the series with Ishikawa, over 100 µM. Further, the half-maximal inhibitory concentration (IC50) is 6.87 µM in the series on HUVEC [5] and 67.6 µM in the series on HL-60. The inhibition in vivo at 200 mg/kg in the series with CCRF S-180 [7] was determined as 27.8%. For the same compound, in the series with HUVEC [8], the result was Active. Also, the inhibition at 2.5 µg/mL with HUVEC [9] amounted to 45.6%. The inhibition at 10 µg/mL in the series on HUVEC [10] was 65.8%.

On to `CCOC(=O)Cc1cccc2c(=O)c3ccc(C)c(C)c3oc12`, for which the Activity with Mus musculus worked out at 8.5%. In addition, in the series with CCRF S-180 [7], the inhibition in vivo at 200 mg/kg is 4.04%.

As for `Cc1ccc2c(=O)c3cccc(CC(=O)Nc4ccccc4)c3oc2c1C`, in the series on Mus musculus, the Activity was determined as 10.2%. Besides, the IC50 (in [1]; in [3]; in the series on SiHa; with MCF7; in the series with HeLa; with BeWo) was over 100 µM each time. The IC50 in the series on A549 was 77.6 µM; with Ishikawa it was over 100 µM; in the series on HUVEC [5], over 20 µM; in the series on HL-60 it was 4.59 µM; in series [6], over 100 µM. Besides, the inhibition in vivo at 200 mg/kg in the series on CCRF S-180 [7] stood at 18.4%.

In the case of `Cc1ccc2c(=O)c3cccc(CC(=O)O)c3oc2c1C` [VADIMEZAN], the IC50 (in series [1]; in series [3]; in the series on SiHa; in the series with MCF7; with HeLa; with BeWo) was over 100 µM throughout. The IC50 with A549 is over 100 µM; in the series on Ishikawa, over 100 µM; with HUVEC [5], over 20 µM; in the series on HL-60, over 100 µM; in series [6], over 100 µM. Also, the inhibition in vivo at 30 mg/kg in the series on CCRF S-180 [11] was 76.2%.

`Cc1ccc2c(=O)c3cccc(CC(=O)Nc4cccc(Cl)c4)c3oc2c1C`: the Activity is given as 10.7% with Mus musculus and “Dose-dependent effect” in the series with HUVEC [5]. Moreover, the IC50 is 36.1 µM in the series on SiHa; over 100 µM in the series on MCF7; 25.4 µM in the series on HeLa; 66.5 µM in the series with BeWo; 10.8 µM with A549; over 100 µM in the series with Ishikawa. Also, the IC50 in the series on HUVEC [5] amounted to 11.1 µM; with HL-60, 91.2 µM. Moreover, the inhibition in vivo at 200 mg/kg in the series on CCRF S-180 [7] came to 22.4%. Besides, the inhibition at 2.5 µg/mL in the series with HUVEC [9] came to 32.6%. Further, in the series with HUVEC [10], the inhibition at 10 µg/mL was 58.2%.
